Assay results published in US9198906B2, “Ketoconazole enantiomer in humans” (Cortendo AB (publ), priority 2006, dated 2015).

Legend:
[1] = system: patients with type 2 diabetes mellitus; experiment: Phase 2a trial, HbA1c (glycemic control); format: in vivo, human
Method: (§1) Five (5) dose groups were studied.
(§2) The first dose of the study drug was given on Day 1 at 2200 h. Activity markers measured on Day 1 prior to administration of the drug (“Visit 1”). The last dose of study drug was given on Day 14 at 2200 h and activity markers measured on Day 15 (“Visit 3”). Measurements of safety markers were taken on Visits 1 and 3, as well as Visit 2 (Day 8) and Visit 4 (Day 28).
This test measure levels of glycated hemoglobin and reflects the average blood glucose level for a subject over the preceding 3 months (approximately). Elevated levels are common in diabetics. Lowering the hemoglobin A1c number can delay or prevent the development of serious eye, kidney, and nerve disease in individuals with diabetes.

[2] = system: patients with type 2 diabetes mellitus; experiment: Phase 2a trial, fructosamine (glycemic control); format: in vivo, human
Method: as §1, §2
Fructosamine levels were measured at baseline and after two weeks of therapy (see Table 4 and FIGS. 1 and 2). […] Fructosamine levels reflect blood glucose levels over the preceding 2-3 weeks.

[3] = system: patients with type 2 diabetes mellitus; experiment: Phase 2a trial, total cholesterol; format: in vivo, human
Method: as §1, §2

[4] = system: patients with type 2 diabetes mellitus; experiment: Phase 2a trial, LDL cholesterol; format: in vivo, human
Method: as §1, §2

[5] = system: patients with type 2 diabetes mellitus; experiment: Phase 2a trial, continuous blood pressure monitoring; format: in vivo, human; details: Visits 1 and 3, 14 daily doses
Method: as §1
Continuous blood pressure monitoring was performed during Visits 1 and 3.

[6] = system: patients with type 2 diabetes mellitus; experiment: Phase 2a trial, C-reactive protein (marker of inflammation); format: in vivo, human
Method: as §1, §2

[7] = system: patients with type 2 diabetes mellitus; experiment: Phase 2a trial, liver function tests (AST/ALT/AP); details: Subject 04-016, KTZ 400 mg
Method: as §2

healthy volunteers = details: published reports, e.g. Morganroth et al. 1997; cited from earlier work
[8] = plasma; Beagle dogs, racemic ketoconazole 30 mg/dog intravenous bolus
Method: The pharmacokinetics of each of the ketoconazole enantiomers was studied following intravenous administration of racemic ketoconazole. Racemic ketoconazolewas dissolved in ethanol to 60 mg/ml. Each of three Beagle dogs was administered 0.5 ml bolus (30 mg/dog) intravenously.
Blood was collected from each dog prior to dosing (“0 min”) and at 2, 5, 10, 15, 30 min, and 1, 2, 4, 6, 8, and 24 hrs post-dosing. At each timepoint, blood (0.3 mL/sample) was collected and placed into labeled Microtainer® tubes with heparin as the anti-coagulant. The heparinized blood was centrifuged, and the supernatant pipetted off into another set of labeled Eppendorf® tubes. The derived plasma samples were analyzed for each of the two ketoconazole enantiomers (2S,4R and 2R,4S) and pharmacokinetic parameters determined for each of the enantiomers.

[9] = 400 mg po QD, 14 daily doses, Visit 3 (Day 15)
[10] = 400 mg po QD group, Visit 1 (baseline, before first dose)

SMILES: CC(=O)N1CCN(c2ccc(OCC3COC(Cn4ccnc4)(c4ccc(Cl)cc4Cl)O3)cc2)CC1 (racemic) [KTZ, 1-acetyl-4-[4-[[2-(2,4-dichlorophenyl)-2-[(1H-imidazol-1-yl)-methyl]-1,3-dioxolan-4-yl]methoxy]phenyl]piperazine, reference compound]
- Visit 1 HbA1c mean ([1]; 400 mg po QD group, Visit 1 (Day 1, before first dose, baseline)): 8.05%
- HbA1c Change vs Baseline mean ([1]; 400 mg po QD, 14 daily doses): −0.37%
- Visit 3 HbA1c mean [1, 9]: 7.68%
- Fructosamine Visit 1 mean [2, 10]: 272.57 µmol/L
- Fructosamine Change vs Baseline mean ([2]; 400 mg po QD, 14 daily doses): -2.29 µmol/L
- Fructosamine Visit 3 mean [2, 9]: 270.29 µmol/L
- Total cholesterol Visit 1 mean [3, 10]: 198.14 mg/dL
- Total cholesterol Change mean ([3]; 400 mg po QD, 14 daily doses): -33.57 mg/dL
- Total cholesterol Mean % change ([3]; 400 mg po QD, 14 daily doses): −15.46%
- Total cholesterol Visit 3 mean [3, 9]: 164.57 mg/dL
- LDL cholesterol Visit 1 mean [4, 10]: 118.71 mg/dL
- LDL cholesterol Mean % change ([4]; 400 mg po QD, 14 daily doses): −24.73%
- LDL cholesterol change mean ([4]; 400 mg po QD, 14 daily doses): -30.43 mg/dL
- LDL cholesterol Visit 3 mean [4, 9]: 88.29 mg/dL
- effect on blood pressure readings [5]: no reductions
- C-Reactive Protein (CRP) Visit 1 mean [6, 10]: 2.28 mg/L
- CRP Mean % change vs baseline ([6]; 400 mg po QD, 14 daily doses): 9.78%
- C-Reactive Protein (CRP) Visit 3 mean [6, 9]: 2.22 mg/L
- effect on CRP ([6]; 14 daily doses): did not reduce CRP levels and actually led to an increase in CRP
- ALT ([7]; Screening Visit): 28 u/L
- AP ([7]; Screening Visit): 110 u/L
- AST ([7]; Screening Visit): 33 u/L
- ALT ([7]; Visit 1 (pre-1st dose)): 37 u/L
- AP ([7]; Visit 1 (pre-1st dose)): 109 u/L
- AST ([7]; Visit 1 (pre-1st dose)): 53 u/L
- ALT ([7]; Visit 2): 19 u/L
- AP ([7]; Visit 2): 137 u/L
- AST ([7]; Visit 2): 36 u/L
- ALT ([7]; Visit 3 (last dose)): 18 u/L
- AP ([7]; Visit 3 (last dose)): 103 u/L
- AST ([7]; Visit 3 (last dose)): 31 u/L
- effect on QTc interval (healthy volunteers): does not increase

SMILES: CC(=O)N1CCN(c2ccc(OC[C@H]3CO[C@](Cn4ccnc4)(c4ccc(Cl)cc4Cl)O3)cc2)CC1 (single isomer, unassigned) [2R,4S ketoconazole enantiomer, reference compound]
- clearance [8]: 24.03 mL/min/kg
- terminal half life [8]: 55.8 min
